The text below walks through data of ChEMBL document CHEMBL1136837, “Unified QSAR approach to antimicrobials. 4. Multi-target QSAR modeling and comparative multi-distance study of the giant components of antiviral drug-drug complex networks” (Bioorg Med Chem, 2009).

The structures appear in SMILES notation.

What all share (assay type): functional, organism-based
In test [1] the test system is Coxsackievirus. The test is described as follows: Antiviral activity against Coxsackievirus.
Test [2] relates to Echovirus. The test is described as follows: Antiviral activity against Echovirus.
For test [3], the system named is Enterovirus. The test is described as follows: Antiviral activity against Enterovirus.
Test [4] relates to Human rhinovirus sp. The test is described as follows: Antiviral activity against Human rhinovirus.
The test system of test [5] is Human immunodeficiency virus 1. The test is described as follows: Antiviral activity against HIV1.
Test [6] deals with unidentified influenza virus. The test is described as follows: Antiviral activity against influenza virus.
The test system of test [7] is Enterovirus C. The test is described as follows: Antiviral activity against Poliovirus.
In test [8] the test system is Respirovirus muris. The test is described as follows: Antiviral activity against Sendai virus.

One may read the IC50 as the concentration that inhibits the measured activity by half. A lower IC50 goes with greater potency in that assay. Turning to `CCO/N=C/c1ccc(OCCC2CCN(c3ccc(Cl)nn3)CC2)cc1`, the 50% inhibitory concentration (IC50) in test [1] was 0.825 µM; in test [2], 0.067 µM; in test [3] it was 0.001 µM; in test [4], 0.026 µM.

For the compound `O=c1n(Cc2nc3ccccc3n2CCCCO)c2cnccc2n1C1CC1`, the half-inhibitory concentration (IC50) in test [5] was found to be 200 µM; in test [4] it was 200 µM; in test [6], 200 µM; in test [7], 200 µM; in test [8] it was 25 µM.
